Results on 7 compounds are retold here after patent US4426382A, “4-Amino-6,7-dimethoxy-2-piperazinylquinazoline derivatives, their preparation and use” (Sankyo Company Limited, priority 1980, dated 1984).

The conditions of test [1]: background; cited from earlier work.
Test [2] has as its system spontaneously hypertensive rats. Briefly: antihypertensive activity: blood pressure after oral administration to conscious spontaneously hypertensive rats. The format is in vivo. The following applies: male spontaneously hypertensive rats. Here is the method: The animals used in this test were 15 week old male spontaneously hypertensive rats. 3-5 rats were used to test each concentration of each compound. Each animal was treated as follows. […] A polyethylene cannula was then inserted into the abdominal aorta by the method of Weeks and Jones [J. R. Weeks and J. A. Jones, Proc. Soc. […] The other end of the cannula, leading out of the body, was fixed to the neck. One week after the operation, when the animal had recovered from post-operative invasion, this end of the cannula was connected to an apparatus to measure the blood pressure and heart beat directly without the need for any further anesthesia or restraint. The haemomanometer used was an improved type of that originated by Laffan et al. [P. J. Laffan, A. Peterson, S. W. Hitch and C.
The compound under test was suspended at the desired concentration in a 0.3% w/v aqueous solution of carboxymethylcellulose and administered orally in a volume of 2 ml/kg body weight. […] After administration of the sample, the blood pressure and heart beat of each animal were measured for 24 hours at 15 minute intervals.
For purposes of comparison, the same experiment was carried out with various concentrations of the known hypotensive agent, prazosin, in the form of its hydrochloride.
Δmax =Maximum change in blood pressure (mm/Hg) after administration of the compound under test;
Tmax =Time (in hours) after administration of the compound under test required for the blood pressure to obtain a maximum change;
T0.5 max =Time (in hours) after administration of the compound under test for the blood pressure to return to one-half of its maximum value.

Structures can show the parent of a compound that is named as a salt.

On to `COc1cc2nc(N3CCN(C(=O)c4ccco4)CC3)nc(N)c2cc1OC` [prazosin], for which, in test [1], the “antihypertensive activity (in words)” value is “very useful antihypertensive activity”, the “disappearance of hypotensive effect (in words)” value is on record as “the effect tends also to diappear quickly” and the “time to maximum hypotensive effect (in words)” value is given as “maximum hypotensive effect tends to be achieved very quickly”.
With `COc1cc2nc(N3CCN(C(=O)c4ccc(OCc5ccccc5)cc4)CC3)nc(N)c2cc1OC` [14 hydrochloride dihydrate], the “T0.5 max, time after administration for the blood pressure to return to one-half of its maximum value” (from here on “T0.5 max, time after administration”) in test [2] (dose 3 mg/kg oral) is 9.5 h; in test [2] (dose 10 mg/kg oral), 12 h; in test [2] (dose 30 mg/kg oral), 15 h. Further, the “Tmax, time after administration required for the blood pressure to obtain a maximum change” value (“Tmax, time … to obtain a maximum change” below) in test [2] (dose 3 mg/kg oral) is 6 h; in test [2] (dose 10 mg/kg oral) it was 6 to 7 h; in test [2] (dose 30 mg/kg oral), 6 to 7 h. The “Δmax, maximum change in blood pressure after administration” value (“Δmax, maximum change in blood pressure” for short) is reported as -18 mmHg in test [2] (dose 3 mg/kg oral), -29 mmHg in test [2] (dose 10 mg/kg oral) and -35 mmHg in test [2] (dose 30 mg/kg oral).
In the case of `CCC=CC(=O)N1CCN(c2nc(N)c3cc(OC)c(OC)cc3n2)CC1` [Compound No. 5, 4-Amino-6,7-dimethoxy-2-[4-(2-pentenoyl)-1-piperazinyl]quinazoline], in test [2] (dose 3 mg/kg oral), the “Tmax, time … to obtain a maximum change” value is 0.5 h and the “Δmax, maximum change in blood pressure” value is -40 mmHg. The “T0.5 max, time after administration” value in test [2] (dose 3 mg/kg oral, 3 mg/kg) was found to be 9 h. In test [2] (dose 30 mg/kg oral, 30 mg/kg), the “T0.5 max, time after administration” value was determined as 11.5 h; the “Tmax, time … to obtain a maximum change” value stood at 0.5 h; the “Δmax, maximum change in blood pressure” value is given as -50 mmHg.
As to `CCC=CCC(=O)N1CCN(c2nc(N)c3cc(OC)c(OC)cc3n2)CC1` [Compound No. 7, 4-Amino-2-[4-(3-hexenoyl)-1-piperazinyl]-6,7-dimethoxyquinazoline], in test [2] (dose 3 mg/kg oral), the “T0.5 max, time after administration” value amounted to 7 h; the “Tmax, time … to obtain a maximum change” value is 0.5 h; the “Δmax, maximum change in blood pressure” value is -20 mmHg. Further, in test [2] (dose 30 mg/kg oral), the “T0.5 max, time after administration” value was 15 h; the “Tmax, time … to obtain a maximum change” value came to 0.5 h; the “Δmax, maximum change in blood pressure” value is -25 mmHg.
As to `COc1cc2nc(N3CCN(C(=O)C=C4CCCCC4)CC3)nc(N)c2cc1OC` [31 hydrochloride hydrate], in test [2] (dose 3 mg/kg oral), the “T0.5 max, time after administration” value was found to be 10 h; the “Tmax, time … to obtain a maximum change” value was in the range of 1 to 2 h; the “Δmax, maximum change in blood pressure” value is -25 mmHg. For the same compound, in test [2] (dose 30 mg/kg oral), the “T0.5 max, time after administration” value came to 14 h; the “Tmax, time … to obtain a maximum change” value lay in the range of 1 to 2 h; the “Δmax, maximum change in blood pressure” value is listed as -40 mmHg.
In the case of `COc1cc2nc(N3CCN(C(=O)Cc4ccccc4)CC3)nc(N)c2cc1OC` [28 hydrochloride hydrate], in test [2] (dose 3 mg/kg oral), the “T0.5 max, time after administration” value is 9 h; the “Tmax, time … to obtain a maximum change” value came to 1 h; the “Δmax, maximum change in blood pressure” value was -30 mmHg. Also, in test [2] (dose 30 mg/kg oral), the “T0.5 max, time after administration” value turned out to be 10 h; the “Tmax, time … to obtain a maximum change” value is 4 h; the “Δmax, maximum change in blood pressure” value was -50 mmHg.
As for `C=C(C)C(=O)N1CCN(c2nc(N)c3cc(OC)c(OC)cc3n2)CC1` [Compound No. 2, 4-Amino-6,7-dimethoxy-2-[4-(2-methylacryloyl)-1-piperazinyl]quinazoline], in test [2] (dose 3 mg/kg oral), the “T0.5 max, time after administration” value was 3.5 h; the “Tmax, time … to obtain a maximum change” value was 0.75 h; the “Δmax, maximum change in blood pressure” value was -25 mmHg. For the same compound, in test [2] (dose 30 mg/kg oral), the “T0.5 max, time after administration” value turned out to be 9 h; the “Tmax, time … to obtain a maximum change” value is 0.5 h; the “Δmax, maximum change in blood pressure” value was -35 mmHg.
